Test results: patent US11382956B2, “Amylin analogues” (Zealand Pharma A/S, priority 2016, dated 2022)
Numbered stars: 1 amine (or outer) side, 2 acyl side, 3 side chain; on linkers, the order of the positions; unused ones are H or OH. Bridge positions count the residues as written; N and C are the ends. Square brackets hold non-standard residues; d marks the D form. Peptide text beside a SMILES is read from it. * marks the point of attachment. C20 diacid = O=C(O)CCCCCCCCCCCCCCCCCCC(=O)*; γGlu = O=C(O)[C@H](CCC(=O)[*:2])N[*:1]; Hyp = O=C(O)[C@@H]1C[C@@H](O)CN1; NMeI = CC[C@H](C)[C@H](NC)C(=O)O; Aad = N[C@@H](CCCC(=O)O)C(=O)O; hLys = NCCCCC[C@H](N)C(=O)O; Dab = NCC[C@H](N)C(=O)O; Dap = NC[C@H](N)C(=O)O; Sar = CNCC(=O)O

How the values were obtained:
[1] = target: T1, recombinant human calcitonin receptor (hCT-R) (Homo sapiens, UniProt P30988); assay: hCT-R cAMP assay (AlphaScreen) in 1321N1 cells; type: cell-based; conditions: cAMP formation, 45 min stimulation
T1 construct: host or cells: human astrocytoma cell line 1321N1
T1 sequence (P30988 25-474): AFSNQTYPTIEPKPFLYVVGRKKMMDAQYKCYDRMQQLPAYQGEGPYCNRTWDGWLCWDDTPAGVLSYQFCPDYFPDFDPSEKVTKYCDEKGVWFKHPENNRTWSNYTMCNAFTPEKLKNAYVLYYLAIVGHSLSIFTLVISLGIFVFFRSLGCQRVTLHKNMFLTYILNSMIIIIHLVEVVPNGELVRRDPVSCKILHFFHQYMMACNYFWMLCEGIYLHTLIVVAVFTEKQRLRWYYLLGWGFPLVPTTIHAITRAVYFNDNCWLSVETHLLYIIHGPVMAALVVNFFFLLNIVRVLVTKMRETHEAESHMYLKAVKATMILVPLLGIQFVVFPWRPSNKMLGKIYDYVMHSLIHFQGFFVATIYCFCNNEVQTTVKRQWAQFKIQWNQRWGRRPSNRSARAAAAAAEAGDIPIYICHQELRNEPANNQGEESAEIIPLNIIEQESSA
In short: (§1)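 1321N1 astrocytoma cells expressing recombinant human calcitonin receptor alone or with RAMP3 (AMY3) stimulated 45 min at room temperature with peptide in IBMX-containing buffer. cAMP quantified by AlphaScreen after 1 h bead incubation; EC50 fitted from at least 7 concentrations.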

[2] = target: T2, recombinant human amylin 3 receptor (hAMYR3) (Homo sapiens, UniProt O60896+P30988); assay: hAMYR3 cAMP assay (AlphaScreen) in 1321N1 cells; type: cell-based; conditions: cAMP formation, 45 min stimulation
T2 construct: host or cells: human astrocytoma cell line 1321N1
T2 sequence (P30988 25-474): T1 sequence (P30988 25-474)
T2 sequence (O60896 24-148 partner): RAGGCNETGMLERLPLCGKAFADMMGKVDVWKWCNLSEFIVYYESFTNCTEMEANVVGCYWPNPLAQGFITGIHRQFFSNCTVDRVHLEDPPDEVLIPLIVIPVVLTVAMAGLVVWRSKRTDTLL
In short: as §1

[3] = Chemical stability, alternative analysis in MilliQ water with pH adjusted, 40° C. (RP-HPLC); type: physicochemical; conditions: for % degradation after 8 days at 40° C. pH4: pH adjusted to 4.0, 8 days; for % degradation after 8 days at 40° C. pH7.5: pH adjusted to 7.5, 8 days; for % degradation after 8 days at 40° C. pH9: pH adjusted to 9.0, 8 days
Description: In an alternative analysis, peptides were dissolved in MilliQ water and pH adjusted to 4.0, 7.5 or 9.0. Samples were placed in glass vials and incubated at 40° C. The samples were analyzed by RP-HPLC on a C8 column with gradient elution using a trifluoroacetic acid/acetonitrile/water eluent system. The area-percentage (area-%) of the main peak was determined by UV spectroscopy at 220 nm at each sampling time point.
The % degradation was calculated by subtracting the […].
The results of the chemical stability assessment after 8 days of incubation time are summarized as % degradation in Table 3 (below).

Compound	EC50 [1]	EC50 [2]	% degradation after 8 days at 40° C. pH4 [3]	% degradation after 8 days at 40° C. pH7.5 [3]	% degradation after 8 days at 40° C. pH9 [3]
CC[C@H](C)[C@@H](C(=O)N[C@@H](CC(C)C)C(=O)N[C@@H](CO)C(=O)N[C@@H](CO)C(=O)N[C@H](C(=O)N[C@@H](CCC(=O)O)C(=O)N[C@H](C(=O)NCC(=O)N[C@@H](CO)C(=O)N[C@@H](CC(N)=O)C(=O)N[C@H](C(=O)N1C[C@H](O)C[C@H]1C(N)=O)[C@@H](C)O)C(C)C)[C@@H](C)O)N(C)C(=O)[C@H](C)NC(=O)CN(C)C(=O)[C@H](Cc1ccccc1)NC(=O)[C@H](CO)NC(=O)[C@H](CO)NC(=O)[C@H](CCCNC(=N)N)NC(=O)[C@H](CCC(N)=O)NC(=O)[C@H](CC(C)C)NC(=O)[C@H](Cc1ccccc1)NC(=O)[C@H](Cc1c[nH]cn1)NC(=O)[C@H](C)NC(=O)[C@H](CC(C)C)NC(=O)[C@H](CCCNC(=N)N)NC(=O)[C@H](CCC(=O)O)NC(=O)[C@@H](NC(=O)[C@H](C)NC(=O)[C@@H]1CCCCCNC(=O)C[C@H](NC(=O)[C@H](CCCNC(=N)N)NC(=O)CC[C@H](NC(=O)CCCCCCCCCCCCCCCCCCC(=O)O)C(=O)O)C(=O)NCC(=O)N[C@@H]([C@@H](C)O)C(=O)N[C@@H](C)C(=O)N[C@@H]([C@@H](C)O)C(=O)N1)[C@@H](C)O [Compound 19, [19CD]-isoGlu-RD()GTAT-hLys()-ATERLAHFLQRSSF-Gly(Me)-A-Ile(Me)-LSSTEVGSNT-Hyp-NH2] ({C20 diacid-γGlu}-RDGTAT[hLys]ATERLAHFLQRSSF[Sar]A[NMeI]LSSTEVGSNT[Hyp]-NH2; lactam 2-7)	0.028 nM	0.006 nM	3.9%	6.2%	4.2%
CC[C@H](C)[C@@H](C(=O)N[C@@H](CC(C)C)C(=O)N[C@@H](CO)C(=O)N[C@@H](CO)C(=O)N[C@H](C(=O)N[C@@H](CCC(=O)O)C(=O)N[C@H](C(=O)NCC(=O)N[C@@H](CO)C(=O)N[C@@H](CC(N)=O)C(=O)N[C@H](C(=O)N1C[C@H](O)C[C@H]1C(N)=O)[C@@H](C)O)C(C)C)[C@@H](C)O)N(C)C(=O)[C@H](C)NC(=O)CN(C)C(=O)[C@H](Cc1ccccc1)NC(=O)[C@H](CO)NC(=O)[C@H](CO)NC(=O)[C@H](CCCNC(=N)N)NC(=O)[C@H](CCC(N)=O)NC(=O)[C@H](CC(C)C)NC(=O)[C@H](Cc1ccccc1)NC(=O)[C@H](Cc1c[nH]cn1)NC(=O)[C@H](C)NC(=O)[C@H](CC(C)C)NC(=O)[C@H](CCCNC(=N)N)NC(=O)[C@H](CCC(=O)O)NC(=O)[C@@H](NC(=O)[C@H](C)NC(=O)[C@@H]1CCCC(=O)NC[C@H](NC(=O)[C@H](CCCNC(=N)N)NC(=O)CC[C@H](NC(=O)CCCCCCCCCCCCCCCCCCC(=O)O)C(=O)O)C(=O)NCC(=O)N[C@@H]([C@@H](C)O)C(=O)N[C@@H](C)C(=O)N[C@@H]([C@@H](C)O)C(=O)N1)[C@@H](C)O [Compound 48, [19CD]-isoGlu-R-Dap()-GTAT-Aad()-ATERLAHFLQRSSF-Gly(Me)-A-Ile(Me)-LSSTEVGSNT-Hyp-NH2] ({C20 diacid-γGlu}-R[Dap]GTAT[Aad]ATERLAHFLQRSSF[Sar]A[NMeI]LSSTEVGSNT[Hyp]-NH2; lactam 2-7)	0.107 nM	0.02 nM	1.8%	2.3%	2.5%
CC[C@H](C)[C@@H](C(=O)N[C@@H](CC(C)C)C(=O)N[C@@H](CO)C(=O)N[C@@H](CO)C(=O)N[C@H](C(=O)N[C@@H](CCC(=O)O)C(=O)N[C@H](C(=O)NCC(=O)N[C@@H](CO)C(=O)N[C@@H](CC(N)=O)C(=O)N[C@H](C(=O)N1C[C@H](O)C[C@H]1C(N)=O)[C@@H](C)O)C(C)C)[C@@H](C)O)N(C)C(=O)[C@H](C)NC(=O)CN(C)C(=O)[C@H](Cc1ccccc1)NC(=O)[C@H](CO)NC(=O)[C@H](CO)NC(=O)[C@H](CCCNC(=N)N)NC(=O)[C@H](CCC(N)=O)NC(=O)[C@H](CC(C)C)NC(=O)[C@H](Cc1ccccc1)NC(=O)[C@H](Cc1c[nH]cn1)NC(=O)[C@H](C)NC(=O)[C@H](CC(C)C)NC(=O)[C@H](CCCNC(=N)N)NC(=O)[C@H](CCC(=O)O)NC(=O)[C@@H](NC(=O)[C@H](C)NC(=O)[C@@H]1CCC(=O)NCC[C@H](NC(=O)[C@H](CCCNC(=N)N)NC(=O)CC[C@H](NC(=O)CCCCCCCCCCCCCCCCCCC(=O)O)C(=O)O)C(=O)NCC(=O)N[C@@H]([C@@H](C)O)C(=O)N[C@@H](C)C(=O)N[C@@H]([C@@H](C)O)C(=O)N1)[C@@H](C)O [Compound 49, [19CD]-isoGlu-R-Dab()-GTATE()ATERLAHFLQRSSF-Gly(Me)-A-Ile(Me)-LSSTEVGSNT-Hyp-NH2] ({C20 diacid-γGlu}-R[Dab]GTATEATERLAHFLQRSSF[Sar]A[NMeI]LSSTEVGSNT[Hyp]-NH2; lactam 2-7)	1.04 nM	0.442 nM	1.7%	2.1%	3.0%
CC[C@H](C)[C@@H](C(=O)N[C@@H](CC(C)C)C(=O)N[C@@H](CO)C(=O)N[C@@H](CO)C(=O)N[C@H](C(=O)N[C@@H](CCC(=O)O)C(=O)N[C@H](C(=O)NCC(=O)N[C@@H](CO)C(=O)N[C@@H](CC(N)=O)C(=O)N[C@H](C(=O)N1C[C@H](O)C[C@H]1C(N)=O)[C@@H](C)O)C(C)C)[C@@H](C)O)N(C)C(=O)[C@H](C)NC(=O)CN(C)C(=O)[C@H](Cc1ccccc1)NC(=O)[C@H](CO)NC(=O)[C@H](CO)NC(=O)[C@H](CCCNC(=N)N)NC(=O)[C@H](CCC(N)=O)NC(=O)[C@H](CC(C)C)NC(=O)[C@H](Cc1ccccc1)NC(=O)[C@H](Cc1c[nH]cn1)NC(=O)[C@H](C)NC(=O)[C@H](CC(C)C)NC(=O)[C@H](CCCNC(=N)N)NC(=O)[C@H](CCC(=O)O)NC(=O)[C@@H](NC(=O)[C@H](C)NC(=O)[C@@H]1CCNC(=O)CC[C@H](NC(=O)[C@H](CCCNC(=N)N)NC(=O)CC[C@H](NC(=O)CCCCCCCCCCCCCCCCCCC(=O)O)C(=O)O)C(=O)NCC(=O)N[C@@H]([C@@H](C)O)C(=O)N[C@@H](C)C(=O)N[C@@H]([C@@H](C)O)C(=O)N1)[C@@H](C)O [Compound 51, [19CD]-isoGlu-RE()GTAT-Dab()-ATERLAHFLQRSSF-Gly(Me)-A-Ile(Me)-LSSTEVGSNT-Hyp-NH2] ({C20 diacid-γGlu}-REGTAT[Dab]ATERLAHFLQRSSF[Sar]A[NMeI]LSSTEVGSNT[Hyp]-NH2; lactam 2-7)	0.861 nM	0.306 nM	3.1%	4.6%	4.6%
